Results taken from PMC7073924, “2-Aminomethylene-5-sulfonylthiazole Inhibitors of Lysyl Oxidase (LOX) and LOXL2 Show Significant Efficacy in Delaying Tumor Growth” (Journal of Medicinal Chemistry, 2019).
pIC50: −log10 of the molar value. Where “and” joins values, the source holds several entries; their conditions need not be identical. Equal values may be shown once. Where a name gives a salt, the structure may show the parent alone.

Assays:
MAO-A = molecular target: T1, MAO-A (Homo sapiens, UniProt P21397); assay type: biochemical; conditions: Table 7
T1 construct: purchased Sigma
T1 sequence (P21397 1-527): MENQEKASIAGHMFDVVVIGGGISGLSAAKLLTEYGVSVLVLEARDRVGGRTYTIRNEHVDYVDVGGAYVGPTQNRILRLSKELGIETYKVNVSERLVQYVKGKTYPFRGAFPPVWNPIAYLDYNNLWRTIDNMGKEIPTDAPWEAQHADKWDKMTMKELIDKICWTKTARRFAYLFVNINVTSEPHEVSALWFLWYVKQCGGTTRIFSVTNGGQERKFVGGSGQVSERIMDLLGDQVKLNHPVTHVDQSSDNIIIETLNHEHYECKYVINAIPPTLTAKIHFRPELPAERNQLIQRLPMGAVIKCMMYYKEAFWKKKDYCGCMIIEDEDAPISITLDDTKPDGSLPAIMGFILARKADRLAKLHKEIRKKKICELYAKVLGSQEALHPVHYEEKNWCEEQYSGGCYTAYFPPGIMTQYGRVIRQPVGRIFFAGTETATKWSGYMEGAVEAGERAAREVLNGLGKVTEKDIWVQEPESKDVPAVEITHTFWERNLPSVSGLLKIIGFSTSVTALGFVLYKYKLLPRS
Description: (§1) All amine oxidase assays were performed with concentrations as above. MAO-A and MAO-B enzymes were purchased from Sigma. The catalytic activity of MAO-A and MAO-B was determined using the Promega MAO-Glo assay kit (substrate included), with clorgyline and deprenyl as reference inhibitor controls, respectively. DAO was purchased from Sigma, and the catalytic activity was determined using the Promega ROS-Glo assay kit, with aminoguanidine as the reference inhibitor control. SSAO was purchased from Sigma. SSAO catalytic activity was determined using the Promega MAO-Glo assay kit, with mofegiline as the reference inhibitor control.

In vivo PK, mouse = conditions: single po dose 50 mg/kg
Excerpt: Female Balb/C or CD1 nude mice (Charles River Laboratories) at 6 weeks of age were used for the mouse PK analyses. […] Three mice were used per time-point per route; average values are reported. They were placed under halothane or isoflurane anesthesia, and blood for plasma preparation was taken by terminal cardiac puncture into heparinized syringes.

SSAO = molecular target: T2, SSAO (Homo sapiens, UniProt Q16853); assay type: biochemical; conditions: Table 7
T2 construct: purchased Sigma
T2 sequence (Q16853 1-763): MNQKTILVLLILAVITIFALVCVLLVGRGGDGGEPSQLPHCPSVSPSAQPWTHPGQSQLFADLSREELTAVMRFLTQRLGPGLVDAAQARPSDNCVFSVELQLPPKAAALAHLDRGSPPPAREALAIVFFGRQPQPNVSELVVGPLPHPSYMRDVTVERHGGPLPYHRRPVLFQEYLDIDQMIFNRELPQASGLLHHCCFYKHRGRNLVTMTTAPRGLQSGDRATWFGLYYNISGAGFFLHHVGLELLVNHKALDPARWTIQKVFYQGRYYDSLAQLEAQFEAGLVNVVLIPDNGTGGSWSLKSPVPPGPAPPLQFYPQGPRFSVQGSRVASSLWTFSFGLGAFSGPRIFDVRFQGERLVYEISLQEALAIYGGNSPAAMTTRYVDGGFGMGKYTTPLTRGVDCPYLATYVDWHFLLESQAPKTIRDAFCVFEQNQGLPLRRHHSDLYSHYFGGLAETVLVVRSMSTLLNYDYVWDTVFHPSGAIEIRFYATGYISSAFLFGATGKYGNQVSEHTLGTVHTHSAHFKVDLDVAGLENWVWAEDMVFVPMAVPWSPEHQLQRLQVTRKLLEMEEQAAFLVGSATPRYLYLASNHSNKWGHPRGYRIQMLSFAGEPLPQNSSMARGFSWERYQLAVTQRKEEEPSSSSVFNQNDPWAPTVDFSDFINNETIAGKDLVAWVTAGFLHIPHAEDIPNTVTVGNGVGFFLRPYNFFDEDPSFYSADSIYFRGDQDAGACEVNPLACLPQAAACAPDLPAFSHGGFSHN
Description: as §1

MLM stability assay = assay type: in vitro ADME; conditions: mouse liver microsomes; percentage of compound remaining after 30 min; 10 μM
Description: Mouse liver microsomes (CD1 female; M1500) and rat liver microsomes (Sprague Dawley female; R1500) were purchased from Tebu-bio, and the assay was performed by methods previously described.[21] Inhibitors at 10 μM concentration incubated with the microsomes were assessed at 0, 15, and 30 min. Control samples containing no microsomes and no cofactors were also assessed at 0 and 30 min. Samples were extracted by protein precipitation, and centrifugation for 20 min in a refrigerated centrifuge (4 °C) at 3700 rpm. The supernatant was analyzed by LC–MS/MS for % metabolized over time.

[1] = molecular target: hERG human potassium ion channel (Homo sapiens, UniProt Q12809)
hERG human potassium ion channel, sequence (Q12809 whole entry): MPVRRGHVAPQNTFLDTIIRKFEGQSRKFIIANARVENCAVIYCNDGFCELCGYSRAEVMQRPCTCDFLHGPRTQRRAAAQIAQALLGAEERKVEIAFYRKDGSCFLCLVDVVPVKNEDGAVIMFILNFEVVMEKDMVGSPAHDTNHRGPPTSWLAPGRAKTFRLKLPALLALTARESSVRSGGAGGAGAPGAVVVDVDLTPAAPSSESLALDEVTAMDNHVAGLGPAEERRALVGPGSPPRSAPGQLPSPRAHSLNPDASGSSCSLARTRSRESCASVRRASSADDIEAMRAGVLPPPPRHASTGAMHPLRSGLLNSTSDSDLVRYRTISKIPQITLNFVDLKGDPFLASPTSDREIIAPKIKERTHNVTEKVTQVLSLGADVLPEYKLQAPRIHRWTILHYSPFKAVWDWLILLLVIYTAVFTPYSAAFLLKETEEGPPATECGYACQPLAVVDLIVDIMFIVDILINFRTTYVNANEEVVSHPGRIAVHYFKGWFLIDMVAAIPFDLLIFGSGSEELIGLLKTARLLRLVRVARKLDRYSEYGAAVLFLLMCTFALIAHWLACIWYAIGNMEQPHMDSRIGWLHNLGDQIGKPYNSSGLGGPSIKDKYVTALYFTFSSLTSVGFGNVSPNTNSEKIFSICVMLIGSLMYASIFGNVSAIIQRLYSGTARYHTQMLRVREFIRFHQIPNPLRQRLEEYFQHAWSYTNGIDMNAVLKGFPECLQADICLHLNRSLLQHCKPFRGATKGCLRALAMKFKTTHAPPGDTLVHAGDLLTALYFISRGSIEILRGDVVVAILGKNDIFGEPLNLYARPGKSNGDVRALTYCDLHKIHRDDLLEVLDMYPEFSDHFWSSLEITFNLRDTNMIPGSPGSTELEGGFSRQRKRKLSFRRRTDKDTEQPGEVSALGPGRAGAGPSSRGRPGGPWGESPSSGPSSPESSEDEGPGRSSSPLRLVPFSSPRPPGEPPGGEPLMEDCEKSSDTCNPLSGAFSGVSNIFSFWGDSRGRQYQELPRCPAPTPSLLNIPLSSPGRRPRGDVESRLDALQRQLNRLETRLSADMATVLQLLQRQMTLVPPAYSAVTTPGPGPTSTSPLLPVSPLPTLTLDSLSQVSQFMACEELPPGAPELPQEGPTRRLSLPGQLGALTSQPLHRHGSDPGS
Description: hERG inhibition was determined using the “hERG human potassium ion channel cell based antagonist Qpatch assay” by Eurofins Ltd. Cell permeability was determined using the “Caco-2 permeability assay” by Cyprotex Ltd.

DAO = molecular target: T3, DAO (Sus scrofa, UniProt Q9TRC7); assay type: biochemical; conditions: Table 7
T3 construct: purchased Sigma
T3 sequence (Q9TRC7 25-755): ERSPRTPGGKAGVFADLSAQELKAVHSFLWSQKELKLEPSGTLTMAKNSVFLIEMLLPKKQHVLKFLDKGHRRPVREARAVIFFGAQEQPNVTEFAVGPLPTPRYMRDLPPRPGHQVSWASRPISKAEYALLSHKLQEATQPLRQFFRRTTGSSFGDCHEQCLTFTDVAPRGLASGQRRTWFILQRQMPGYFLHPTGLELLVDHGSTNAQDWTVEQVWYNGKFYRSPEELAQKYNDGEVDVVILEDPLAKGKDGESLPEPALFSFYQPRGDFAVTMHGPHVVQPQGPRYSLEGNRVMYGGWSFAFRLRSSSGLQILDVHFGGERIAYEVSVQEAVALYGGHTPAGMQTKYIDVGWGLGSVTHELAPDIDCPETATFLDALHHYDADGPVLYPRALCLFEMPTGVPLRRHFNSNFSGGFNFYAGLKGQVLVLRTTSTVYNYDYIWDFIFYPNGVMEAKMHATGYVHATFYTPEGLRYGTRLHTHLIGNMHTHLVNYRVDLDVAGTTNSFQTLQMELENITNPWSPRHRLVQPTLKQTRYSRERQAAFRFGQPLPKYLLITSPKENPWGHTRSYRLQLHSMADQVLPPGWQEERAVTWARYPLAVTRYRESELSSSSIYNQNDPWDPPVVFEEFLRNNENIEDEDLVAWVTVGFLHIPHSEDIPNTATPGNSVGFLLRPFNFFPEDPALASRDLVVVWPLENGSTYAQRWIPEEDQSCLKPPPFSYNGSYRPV
Description: as §1

MAO-B = molecular target: T4, MAO-B (Homo sapiens, UniProt P27338); assay type: biochemical; conditions: Table 7
T4 construct: purchased Sigma
T4 sequence (P27338 1-520): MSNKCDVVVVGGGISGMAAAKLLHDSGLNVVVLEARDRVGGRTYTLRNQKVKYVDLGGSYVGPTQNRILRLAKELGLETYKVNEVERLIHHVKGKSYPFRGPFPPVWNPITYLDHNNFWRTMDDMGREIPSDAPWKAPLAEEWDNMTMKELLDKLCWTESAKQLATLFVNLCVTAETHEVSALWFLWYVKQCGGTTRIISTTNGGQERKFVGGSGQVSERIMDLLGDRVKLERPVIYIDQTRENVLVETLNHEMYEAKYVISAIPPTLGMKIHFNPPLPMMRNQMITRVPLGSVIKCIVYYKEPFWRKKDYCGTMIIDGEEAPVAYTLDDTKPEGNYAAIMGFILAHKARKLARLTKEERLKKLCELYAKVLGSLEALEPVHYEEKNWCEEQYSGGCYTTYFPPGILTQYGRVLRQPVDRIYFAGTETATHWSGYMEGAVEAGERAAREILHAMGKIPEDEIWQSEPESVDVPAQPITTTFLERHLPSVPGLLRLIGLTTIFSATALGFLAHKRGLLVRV
Description: as §1

What does the source list for `Cn1cc(-c2cc(F)cc(S(=O)(=O)c3cnc(CN)s3)c2)cn1` [Compound 21e, (5-((3-Fluoro-5-(1-methyl-1H-pyrazol-4-yl)phenyl)sulfonyl)thiazol-2-yl)methanamine Hydrochloride]?
pIC50 (MAO-A): 4.21 and 4.18; AUC(PO) (In vivo PK, mouse; mouse plasma): 4.48 µM·h; Cmax (In vivo PK, mouse; mouse plasma): 9.75 µM; t1/2(PO) (In vivo PK, mouse; mouse): 2.0 h; pIC50 (SSAO): 4.44 and 4.39; MLM stability (%) (MLM stability assay): 90%; pIC50 [1]: 4.18; pIC50 (DAO): 4.67 and 4.65; pIC50 (MAO-B): < 4.00
